# Data as given in article PMC6896740, “Safety, tolerability, pharmacokinetics, and pharmacodynamics of PF-06650833, a selective interleukin-1 receptor-associated kinase 4 (IRAK4) inhibitor, in single and multiple ascending dose randomized phase 1 studies in healthy subjects” (Arthritis Research & Therapy, 2019).
# Assay: clinical
# Conditions: human, in vivo; for AUC(0-t): AUClast; for Tmax: median (range); for Vd/F: Vz/F
# Excerpt: Study 1 (B7921001; NCT02224651) was a 96-day, phase 1, within-cohort, randomized, double-blind, sponsor-open, placebo-substitution, five-period crossover, SAD study in healthy adult subjects (Fig. 1a). Subjects were sequentially enrolled into four cohorts of ten subjects each. Within each cohort, the subjects were randomized into a maximum of five periods. Within each period, eight subjects and two subjects were randomized to receive PF-06650833 and placebo, respectively. In this placebo-substitution design, all subjects within a cohort received one or more doses of PF-06650833 and/or placebo. Single oral doses of PF-06650833 IR formulations from 1 to 6000 mg, and MR formulations from 30 to 300 mg, were administered in fasted (overnight fast of ≥ 10 h) and/or fed (high-fat breakfast meal) states. Doses were escalated sequentially by period within each cohort (see Fig. 1a for final dosing scheme), based upon the evaluation of ≥ 48 h of safety and tolerability for all subjects and ≥ 8 h of PK data for at least six subjects receiving PF-06650833 and one subject receiving placebo. Dose escalation was to cease when either the limits of safety and/or tolerability were reached, the projected exposure at the subsequent dose exceeded the toxicokinetic limit (TK) established based on the no observable adverse effect level (NOAEL) in relevant animal studies, or a plateau in exposure was reached.
# The effects of food on the plasma PK profile of the IR and MR formulations were explored in cohorts 1 and 3, respectively, by administering 30 mg doses of PF-06650833 in a fasted state and after a high-fat meal. A 1000-mg dose of the IR formulation was also tested in cohort 3 in an attempt to identify a maximum tolerated dose (MTD). Since TK limits were not reached with the IR formulation at doses up to 1000 mg, the IR doses were escalated to 2000 and 6000 mg with a high-fat meal in cohort 4 (Fig. 1a).
# For both studies, samples of blood (and urine in study 2) were taken for evaluation of PK/PD parameters (see Additional file 1: Supplemental Methods). PK samples were obtained at the nominal time relative to dosing (± 10%). Plasma and urine samples were analyzed using validated, sensitive, and specific liquid chromatography tandem mass spectrometric methods (at Pfizer Inc., Groton, CT, USA, for study 1 and at Worldwide Pharmacokinetics, Dynamics and Metabolism, Cambridge, MA, USA, for study 2). The lower limit of quantification for PF-06650833 in plasma was 0.0500 ng/mL. The lower limit of quantification for PF-06650833 in urine was 1.00 ng/mL. Serum samples were also analyzed for hsCRP, and plasma samples were analyzed for 4β-hydroxycholesterol and cholesterol.
# PK parameters were calculated using non-compartmental analysis of concentration-time data. For study 1 only, data from cohort 1 (period 4 [IR 30 mg] versus period 5 [IR 30 mg + food]) and cohort 3 (period 2 [MR 30 mg] versus period 3 [MR 30 mg + food]) were used to estimate the effect of food intake. Cmax and AUC were calculated for each subject and treatment, with and without food, after which a within-subject difference could be found between fed (high-fat meal) and fasted doses. Analysis of covariance was used to model these within-subject differences and to calculate 95% confidence intervals (CIs) for the differences for each dose (IR 30 mg and MR 30 mg). For study 2 only, the amounts of PF-06650833 in urine and renal clearance were listed and summarized descriptively. As part of the routine safety laboratory monitoring, the presence of any atypical crystals in urine specimens was semi-quantitatively assessed microscopically by typical histopathologic methods and scored as numbers of crystals per high power field (hpf); higher abundance (moderate or many) was defined as ≥ 15/hpf. No formal interim analyses were conducted.
# 4 In both studies, subjects were assigned to dose groups according to a pre-defined
# 5 randomization schedule. Each subject was given a unique Electronic Data Capture […]
compound,measurement,setting,value
"CC[C@@H]1[C@H](F)C(=O)N[C@@H]1COc1nccc2cc(C(N)=O)c(OC)cc12 [PF-06650833, 1-{[(2S,3S,4S)-3-Ethyl-4-fluoro-5-oxopyrrolidin-2-yl]methoxy}-7-methoxyisoquinoline-6-carboxamide]",Mean terminal half-life t½,,9.4 to 11.7 h
same,"CL/F, geometric mean (%CV)",1 mg,194.3 (37) L/h
same,AUC(0-inf),"1 mg, AUCinf, geometric mean (%CV)",5.14 ng·h/mL
same,AUC(0-t),"1 mg, geometric mean (%CV)",4.92 ng·h/mL
same,Cmax,"1 mg, geometric mean (%CV)",1.75 ng/mL
same,MRT,"1 mg, mean ± SD",3.12 ± 0.525 h
same,Tmax,1 mg,1 h
same,Vd/F,"1 mg, geometric mean (%CV)",517 L
same,half-life,"1 mg, t½, mean ± SD",1.86 ± 0.24 h
same,"CL/F, geometric mean (%CV)",3 mg,173.1 (49) L/h
same,AUC(0-inf),"3 mg, AUCinf, geometric mean (%CV)",17.3 ng·h/mL
same,AUC(0-t),"3 mg, geometric mean (%CV)",17 ng·h/mL
same,Cmax,"3 mg, geometric mean (%CV)",5.54 ng/mL
same,MRT,"3 mg, mean ± SD",3.4 ± 0.622 h
same,Tmax,3 mg,0.525 h
same,Vd/F,"3 mg, geometric mean (%CV)",567 L
same,half-life,"3 mg, t½, mean ± SD",2.34 ± 0.67 h
same,"CL/F, geometric mean (%CV)",10 mg,121.0 (48) L/h
same,AUC(0-inf),"10 mg, AUCinf, geometric mean (%CV)",82.7 ng·h/mL
same,AUC(0-t),"10 mg, geometric mean (%CV)",81.9 ng·h/mL
same,Cmax,"10 mg, geometric mean (%CV)",22.6 ng/mL
same,MRT,"10 mg, mean ± SD",4.31 ± 0.787 h
same,Tmax,10 mg,1 h
same,Vd/F,"10 mg, geometric mean (%CV)",618 L
same,half-life,"10 mg, t½, mean ± SD",3.54 ± 0.139 h
same,AUCinf (food-effect analysis),30 mg,211.3 ng·h/mL
same,"AUCinf, geometric mean (%CV)",30 mg,206.4 (29) ng•h/mL
same,"AUClast, geometric mean (%CV)",30 mg,203.7 (29) ng•h/mL
same,AUC(0-inf),"30 mg, AUCinf (food-effect analysis)",261 ng·h/mL
same,AUC(0-inf),"30 mg, AUCinf, geometric mean (%CV)",263 ng·h/mL
same,AUC(0-t),"30 mg, geometric mean (%CV)",249 ng·h/mL
same,"AUCinf, geometric mean (%CV)",100 mg,646.4 (48) ng•h/mL
same,"AUClast, geometric mean (%CV)",100 mg,549.4 (38) ng•h/mL
same,"MRT, mean ± SD",100 mg,11.2 ± 4.81 h
same,"t½, mean ± SD",100 mg,15.0 ± 5.22 h
same,AUC(0-inf),"100 mg, AUCinf, geometric mean (%CV)",839 ng·h/mL
same,AUC(0-t),"100 mg, geometric mean (%CV)",762 ng·h/mL
same,MRT,"100 mg, mean ± SD",19.3 ± 5.73 h
same,half-life,"100 mg, t½, mean ± SD",9.35 ± 3.62 h
same,"AUCinf, geometric mean (%CV)",300 mg,1477 (71) ng•h/mL
same,"AUClast, geometric mean (%CV)",300 mg,1436 (57) ng•h/mL
same,"Tmax, median (range)",300 mg,2 (0.500–2.00) h
same,"Vz/F, geometric mean (%CV)",300 mg,5310 (69) L
same,"t½, mean ± SD",300 mg,19.9 ± 9.54 h
same,AUC(0-inf),"300 mg, AUCinf, geometric mean (%CV)",2040 ng·h/mL
same,AUC(0-t),"300 mg, geometric mean (%CV)",1970 ng·h/mL
same,Tmax,300 mg,4 h
same,Vd/F,"300 mg, geometric mean (%CV)",6820 L
same,half-life,"300 mg, t½, mean ± SD",38.8 ± 21.1 h
same,"CL/F, geometric mean (%CV)",1000 mg,411.4 (40) L/h
same,AUC(0-inf),"1000 mg, AUCinf, geometric mean (%CV)",2430 ng·h/mL
same,AUC(0-t),"1000 mg, geometric mean (%CV)",2270 ng·h/mL
same,Cmax,"1000 mg, geometric mean (%CV)",309 ng/mL
same,MRT,"1000 mg, mean ± SD",18.7 ± 4.37 h
same,Tmax,1000 mg,0.75 h
same,Vd/F,"1000 mg, geometric mean (%CV)",14600 L
same,half-life,"1000 mg, t½, mean ± SD",44.9 ± 69.6 h
same,half-life,Mean terminal half-life t½,10.2 to 15 h
